Reference: patent EP0273990B1, “Novel organic peroxides and their use in the preparation of epoxide groups containing (co)polymers” (AKZO N.V., priority 1986, dated 1988)

Conditions: half-life period of decomposition 10 hours; 0,1 M solution in chlorobenzene

Temperature (°C) for t½ of 10 hours: 106 °C
SMILES: C=CC(C)(C)OOC(C)(C)c1ccccc1 [peroxide 3, α-(2-methyl-3-buten-2-ylperoxy)isopropylbenzene]
